In US20220041641A1, “QUATERNARY AMMONIUM SALTS AS INHIBITORS OF TRIMETHYLAMINE PRODUCTION” (Senda Biosciences, Inc., priority 2018, published 2022) one finds IC50 data, which are given here for 47 compounds.

As a reminder, the IC50 is the concentration at which inhibition is half-maximal.

SMILES strings stand for the structures. Where a name gives a salt, the structure may show the parent alone. Some results are limits rather than exact numbers.

CutC from Proteus mirabilis, sequence (B4EYG1 entry or part of it): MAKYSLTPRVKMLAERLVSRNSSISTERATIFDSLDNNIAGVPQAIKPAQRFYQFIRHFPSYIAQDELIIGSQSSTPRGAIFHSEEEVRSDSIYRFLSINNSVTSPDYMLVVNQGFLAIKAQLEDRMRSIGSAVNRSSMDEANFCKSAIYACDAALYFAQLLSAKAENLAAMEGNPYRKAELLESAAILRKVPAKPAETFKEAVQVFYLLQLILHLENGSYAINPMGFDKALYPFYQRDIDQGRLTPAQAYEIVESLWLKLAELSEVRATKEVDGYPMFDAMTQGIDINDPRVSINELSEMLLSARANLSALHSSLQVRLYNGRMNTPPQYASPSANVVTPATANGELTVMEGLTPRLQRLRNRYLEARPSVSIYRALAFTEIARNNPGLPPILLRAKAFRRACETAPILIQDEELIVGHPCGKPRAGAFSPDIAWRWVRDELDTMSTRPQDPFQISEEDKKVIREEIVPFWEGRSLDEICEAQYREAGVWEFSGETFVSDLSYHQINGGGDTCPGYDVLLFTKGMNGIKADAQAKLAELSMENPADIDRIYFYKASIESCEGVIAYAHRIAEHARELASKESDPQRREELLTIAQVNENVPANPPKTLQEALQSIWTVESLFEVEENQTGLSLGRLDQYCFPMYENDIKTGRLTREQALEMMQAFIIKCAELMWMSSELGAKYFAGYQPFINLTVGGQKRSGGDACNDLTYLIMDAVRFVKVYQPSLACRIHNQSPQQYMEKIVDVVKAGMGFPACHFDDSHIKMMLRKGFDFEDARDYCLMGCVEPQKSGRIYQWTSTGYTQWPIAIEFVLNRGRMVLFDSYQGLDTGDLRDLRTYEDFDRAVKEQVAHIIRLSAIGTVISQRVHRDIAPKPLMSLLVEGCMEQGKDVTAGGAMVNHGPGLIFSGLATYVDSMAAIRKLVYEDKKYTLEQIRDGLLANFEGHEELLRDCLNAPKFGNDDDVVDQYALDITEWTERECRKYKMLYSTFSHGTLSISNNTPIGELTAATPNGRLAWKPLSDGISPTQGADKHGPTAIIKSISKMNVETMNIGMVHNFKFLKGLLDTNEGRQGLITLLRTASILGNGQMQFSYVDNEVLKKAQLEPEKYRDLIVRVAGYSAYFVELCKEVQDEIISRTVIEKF
CutC from Proteus mirabilis, sequence (B4EYG0 entry or part of it, further chain): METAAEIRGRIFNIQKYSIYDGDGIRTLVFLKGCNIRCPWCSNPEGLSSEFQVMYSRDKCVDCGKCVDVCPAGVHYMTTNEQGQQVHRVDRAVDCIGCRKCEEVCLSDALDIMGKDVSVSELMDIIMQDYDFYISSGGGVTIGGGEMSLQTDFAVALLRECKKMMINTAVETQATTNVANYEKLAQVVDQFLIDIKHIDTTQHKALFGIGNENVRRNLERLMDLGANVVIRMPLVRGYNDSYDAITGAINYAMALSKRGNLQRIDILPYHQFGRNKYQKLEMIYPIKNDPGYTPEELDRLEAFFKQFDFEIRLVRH

The target of one assay is CutC from Proteus mirabilis (Proteus mirabilis, UniProt B4EYG1). The experiment in a line: Cell-based assay for TMA production from a native producer (P. mirabilis). The conditions noted are these: d9-TMA from 1 mM d9-choline, 5 h, 37° C.; value 10 given when no fit or % TMA remaining at 10 μM higher than 15%; read-out: Average IC50 Whole cell P. mirabilis. The source says:
In each bacterium, CutC was modified into its activated form by a cognate activating enzyme, CutD (protein EDU36696.1 for C. sporogenes; protein WP_004249185.1 for P. mirabilis). […] Trimethylamine may subsequently be converted by human enzymes such as flavin monooxygenase 3 to trimethylamine N-oxide, which might be associated with negative health consequences in humans.
A compound's ability to inhibit CutC from Proteus mirabilis and C. sporogenes from converting choline into trimethylamine was tested in cells as described. A BHI blood plate was inoculated with a frozen stock of Proteus mirabilis or Clostridium sporogenes under anaerobic conditions. A single colony was isolated from the plate and inoculated into 5 mL BHI supplemented with 1 mM choline under anaerobic conditions. The liquid cultures were grown overnight at 37° C.
To prepare each sample, 300 μL of the saturated culture was then inoculated into a 30 mL dilution blank under anaerobic conditions. 1 mM (trimethyl-d9)-choline and a sufficient amount of a compound to obtain a final concentration of 10 μM were added to the inoculated dilution blank. […] The mixture was incubated at 37° C. for 5 h. […] After centrifugation, the samples were analyzed by LCMS to determine the amount of d9-TMA produced.
Take `C#CC[N+](C)(C)CC(=O)O[C@H]1CO[C@H]2[C@@H]1OC[C@H]2OC(=O)C[N+](C)(C)CC#C` [Compound 69, N,N′-((((3R,3aR,6S,6aR)-hexahydrofuro[3,2-b]furan-3,6-diyl)bis(oxy))bis(2-oxoethane-2,1-diyl))bis(N,N-dimethylprop-2-yn-1-aminium) bistrifluoroacetate]: the half-maximal inhibitory concentration (IC50) is no less than 10 µM.

`C#CC[N+](C)(C)CCO[C@H]1CO[C@H]2[C@@H]1OC[C@H]2OCC[N+](C)(C)CC#C` [Compound 71, N,N′-((((3R,3aR,6S,6aR)-hexahydrofuro[3,2-b]furan-3,6-diyl)bis(oxy))bis(ethane-2,1-diyl))bis(N,N-dimethylprop-2-yn-1-aminium) bistrifluoroacetate]: the concentration for half-maximal inhibition (IC50) was no less than 10 µM. Turning to `C#CC[N+](C)(C)CCO[C@@H]1O[C@H](CO)[C@@H](O)[C@H](O)[C@H]1O` [Compound 106, N,N-dimethyl-N-(2-(((3R,4S,5S,6R)-3,4,5-trihydroxy-6-(hydroxymethyl)tetrahydro-2H-pyran-2-yl)oxy)ethyl)prop-2-yn-1-aminium 2,2,2-trifluoroacetate], the IC50 was no less than 10 µM. Turning to `C[N+]12CCC(CC1)[C@H](O)C2` [Compound 148, (1s,4s)-3-hydroxy-1-methylquinuclidin-1-ium], the IC50 was no less than 10 µM. With `C[N+]12CCC(O)(CC1)CC2` [Compound 149, 4-hydroxy-1-methylquinuclidin-1-ium], the IC50 is no less than 10 µM.

In the case of `C#CC[C@@H](C(=O)O)[N+](C)(C)C` [Compound 152, (S)-1-carboxy-N,N,N-trimethylbut-3-yn-1-aminium Iodide], the IC50 was no less than 10 µM.

On to `C#CC[N+](C)(CF)CCO` (centres unmarked) [Compound 153, N-(fluoromethyl)-N-(2-hydroxyethyl)-N-methylprop-2-yn-1-aminium Iodide], for which the half-maximal inhibitory concentration (IC50) was found to be 0.02 µM. On the same count and under the same terms, to `C#CC[N+]1(CCO)CCCCC1` [Compound 154, 1-(2-hydroxyethyl)-1-(prop-2-yn-1-yl)piperidin-1-ium Bromide] belongs no less than 10 µM; to `C=C(C[N+](C)(C)C)C(=O)O` [Compound 155, 2-carboxy-N,N,N-trimethylprop-2-en-1-aminium Bromide], 2.58 µM; to `C=C(C[N+](C)(C)CC(=C)C(=O)O)C(=O)O` [Compound 156, 2-carboxy-N-(2-carboxyallyl)-N,N-dimethylprop-2-en-1-aminium Bromide], no less than 10 µM. As for `C[N+](C)(CCO)CCO` [Compound 157, 2-hydroxy-N-(2-hydroxyethyl)-N,N-dimethylethan-1-aminium Iodide], the IC50 is no less than 10 µM.

As for `C#CC[N+]1(CC(=O)O)CCCCC1` [Compound 160, 1-(carboxymethyl)-1-(prop-2-yn-1-yl)piperidin-1-ium bromide], the 50% inhibitory concentration (IC50) was no less than 10 µM.

For the compound `C[N+]1(CF)CCCC[C@@H]1CO` (stereo partly drawn) [Compound 161, (2R)-1-(fluoromethyl)-2-(hydroxymethyl)-1-methylpiperidin-1-ium Iodide], the IC50 is no less than 10 µM. On to `C#CC[N+](C)(C)C[C@@H](C)C(=O)O` [Compound 162, (R)—N-(2-carboxypropyl)-N,N-dimethylprop-2-yn-1-aminium Chloride], for which the IC50 is 0.29 µM. Turning to `C#CC[N+]1(CF)CCCCC1` [Compound 164, 1-(fluoromethyl)-1-(prop-2-yn-1-yl)piperidin-1-ium Iodide], the IC50 was no less than 10 µM.

`C#CC[N+](C)(C)CC#C` [Compound 165, N,N-dimethyl-N-(prop-2-yn-1-yl)prop-2-yn-1-aminium Bromide]: the 50% inhibitory concentration (IC50) was 2.13 µM. `C#CC[N+](C)(C)C[C@H](C)C(=O)O` [Compound 166, (S)—N-(2-carboxypropyl)-N,N-dimethylprop-2-yn-1-aminium Chloride]: the 50% inhibitory concentration (IC50) came out at 1.26 µM.

In the case of `C=C(CO)C[N+](C)(C)C` [Compound 167, (3-hydroxy-2-methylidenepropyl)trimethylazanium trifluoroacetate], the IC50 is no less than 10 µM. As for `C#CC[N+](C)(C)CC#N` [Compound 168, (cyanomethyl)dimethyl(prop-2-yn-1-yl)azanium Bromide], the half-inhibitory concentration (IC50) is 0.87 µM. Turning to `C[N+](C)(C)CC#N` [Compound 169, (cyanomethyl)trimethylazanium Iodide], the half-maximal inhibitory concentration (IC50) was no less than 10 µM. For the compound `C=C(C[N+](C)(C)CF)C(=O)O` [Compound 171, (2-carboxy-2-methylideneethyl)(fluoromethyl)dimethylazanium Iodide], the 50% inhibitory concentration (IC50) is no less than 10 µM.

Take `C[N+](CF)(CCO)C1CC1` (centres unmarked) [Compound 172, N-(fluoromethyl)-N-(2-hydroxyethyl)-N-methylcyclopropanaminium Iodide]: the IC50 is no less than 10 µM.

Turning to `C[N+](C)(CCO)Cc1ccccc1` [Compound 173, benzyl(2-hydroxyethyl)dimethylazanium], the half-maximal inhibitory concentration (IC50) is no less than 10 µM. With `C#CC[N+](C)(C)C[C@@H](C)C(=O)OC` [Compound 174, [(2R)-3-methoxy-2-methyl-3-oxopropyl]dimethyl(prop-2-yn-1-yl)azanium], the IC50 turned out to be 0.17 µM. For `C#CC[N+](C)(C)C[C@H](C)C(=O)OC` [Compound 175, [(2S)-3-methoxy-2-methyl-3-oxopropyl]dimethyl(prop-2-yn-1-yl)azanium], the IC50 is 0.17 µM. With `CC1OC1C[N+](C)(C)C` (centres unmarked) [Compound 176, trimethyl[(3-methyloxiran-2-yl)methyl]azanium], the half-inhibitory concentration (IC50) was no less than 10 µM. For the compound `C#CC[N+](C)(C)Cc1nnn[nH]1` [Compound 177, dimethyl(prop-2-yn-1-yl)[(1H-1,2,3,4-tetrazol-5-yl)methyl]azanium], the IC50 stood at 7.57 µM.

Consider `C[N+](C)(C)CC1CC1` [Compound 178, (cyclopropylmethyl)trimethylazanium Iodide], for which the IC50 is no less than 10 µM. The same measure, in the same setting: with `C#CC[N+](C)(C)CF` [Compound 179, (fluoromethyl)dimethyl(prop-2-yn-1-yl)azanium Iodide] the figure was 0.11 µM; with `C#CC[N+](C)(C)CC1OC1C` (centres unmarked) [Compound 181, dimethyl[(3-methyloxiran-2-yl)methyl](prop-2-yn-1-yl)azanium], greater than 10 µM; with `C=CC[N+](C)(C)CCO` [Compound 182, (2-hydroxyethyl)dimethyl(prop-2-en-1-yl)azanium Bromide], 3.15 µM. Take `C#CC[N+](C)(C)CCN` [Compound 183, (2-aminoethyl)dimethyl(prop-2-yn-1-yl)azanium]: the IC50 is greater than 10 µM. As to `C[N+](C)(CCO)CC1COC1` [Compound 184, (2-hydroxyethyl)dimethyl[(oxetan-3-yl)methyl]azanium Bromide], the IC50 was greater than 10 µM. As for `C#CC[N+]1(CF)CCCC1` [Compound 187, 1-(fluoromethyl)-1-(prop-2-yn-1-yl)pyrrolidin-1-ium], the IC50 stood at 0.763 µM. `C#CC[N+]1(CC#C)CCCC1` [Compound 188, 1,1-bis(prop-2-yn-1-yl)pyrrolidin-1-ium Bromidebromide]: the 50% inhibitory concentration (IC50) was greater than 10 µM. Take `C=C(C[N+](C)(C)CC#N)C(=O)OC` [Compound 189, N-(cyanomethyl)-2-(methoxycarbonyl)-N,N-dimethylprop-2-en-1-aminium Bromide]: the IC50 was greater than 10 µM. In the case of `C#CC[N+](C)(C)CC1(C(=O)OC)CC1` [Compound 190, N-((1-(methoxycarbonyl)cyclopropyl)methyl)-N,N-dimethylprop-2-yn-1-aminium Bromide], the IC50 came to 1.28 µM. As to `C#CC[N+](C)(C)CCOCCO` [Compound 191, [2-(2-hydroxyethoxy)ethyl]dimethyl(prop-2-yn-1-yl)azanium], the concentration for half-maximal inhibition (IC50) came out at 2.17 µM. Turning to `C#CC[N+](C)(C)CCNC(=O)OC(C)(C)C` [Compound 192, tert-butyl N-{2-[dimethyl(prop-2-yn-1-yl)azaniumyl]ethyl}carbamate Bromide], the IC50 was greater than 10 µM. `C[N+](C)(CCO)C(F)F` [Compound 193, (difluoromethyl)(2-hydroxyethyl)dimethylazanium]: the 50% inhibitory concentration (IC50) turned out to be 1.38 µM. The same measure, in the same setting: to `C[N+](C)(CCO)CC1CCC1` [Compound 194, (cyclobutylmethyl)(2-hydroxyethyl)dimethylazanium Bromide] belongs greater than 10 µM; to `CSC[N+](C)(C)CCO` [Compound 195, (2-hydroxyethyl)dimethyl[(methylsulfanyl)methyl]azanium], greater than 10 µM.

On to `C#CC[N+](C)(C)CSC` [Compound 196, dimethyl[(methylsulfanyl)methyl](prop-2-yn-1-yl)azanium], for which the 50% inhibitory concentration (IC50) is 7.78 µM.

With `C#CC[N+](C)(C)CC(C)=O` [Compound 197, dimethyl(2-oxopropyl)(prop-2-yn-1-yl)azanium Bromide], the half-maximal inhibitory concentration (IC50) stood at 4.97 µM.

Still in this assay, the particulars now being: read-out: Average IC50 Whole cell P. mirabilis; d9-TMA from 1 mM d9-choline, 5 h, 37° C.; value 10 given when no fit or % TMA remaining at 10 μM higher than 15%.
As for `C[N+](C)(C)CCC[PH](=O)O` [Compound 147, 3-(hydroxyhydrophosphoryl)-N,N,N-trimethylpropan-1-aminium Chloridechloridechloridechloridechloride], the concentration for half-maximal inhibition (IC50) is no less than 10 µM.

Take `C[N+](C)(C)CCCl` [Compound 180]: the IC50 is greater than 10 µM. `C[N+](C)(CCO)CCF` [Compound 186, (2-fluoroethyl)(2-hydroxyethyl)dimethylazanium]: the IC50 is greater than 10 µM.
